Measured values reported in patent US8415342B2, “Besifloxacin ophthalmic composition for the treatment or control of infection” (Bausch & Lomb Incorporated, priority 2008, dated 2013).
pIC50: −log10 of the molar value. Values after ≈ are worked out from the molar mass of the structure shown. Values joined by “and” are separate entries in the source; they are usually repeats but may differ in a detail not shown here. Identical values can stand only once.

How the values were obtained:
[1] = molecular target: S. pneumoniae DNA gyrase (Streptococcus pneumoniae serotype 4, UniProt P0A4L9+P72524); experiment: Catalytic inhibition of purified DNA gyrase; format: biochemical
[2] = molecular target: T1, S. pneumoniae topoisomerase IV (Streptococcus pneumoniae serotype 4, UniProt P72525+Q59961); experiment: biochemical; format: biochemical
T1 sequence (P72525 1-823): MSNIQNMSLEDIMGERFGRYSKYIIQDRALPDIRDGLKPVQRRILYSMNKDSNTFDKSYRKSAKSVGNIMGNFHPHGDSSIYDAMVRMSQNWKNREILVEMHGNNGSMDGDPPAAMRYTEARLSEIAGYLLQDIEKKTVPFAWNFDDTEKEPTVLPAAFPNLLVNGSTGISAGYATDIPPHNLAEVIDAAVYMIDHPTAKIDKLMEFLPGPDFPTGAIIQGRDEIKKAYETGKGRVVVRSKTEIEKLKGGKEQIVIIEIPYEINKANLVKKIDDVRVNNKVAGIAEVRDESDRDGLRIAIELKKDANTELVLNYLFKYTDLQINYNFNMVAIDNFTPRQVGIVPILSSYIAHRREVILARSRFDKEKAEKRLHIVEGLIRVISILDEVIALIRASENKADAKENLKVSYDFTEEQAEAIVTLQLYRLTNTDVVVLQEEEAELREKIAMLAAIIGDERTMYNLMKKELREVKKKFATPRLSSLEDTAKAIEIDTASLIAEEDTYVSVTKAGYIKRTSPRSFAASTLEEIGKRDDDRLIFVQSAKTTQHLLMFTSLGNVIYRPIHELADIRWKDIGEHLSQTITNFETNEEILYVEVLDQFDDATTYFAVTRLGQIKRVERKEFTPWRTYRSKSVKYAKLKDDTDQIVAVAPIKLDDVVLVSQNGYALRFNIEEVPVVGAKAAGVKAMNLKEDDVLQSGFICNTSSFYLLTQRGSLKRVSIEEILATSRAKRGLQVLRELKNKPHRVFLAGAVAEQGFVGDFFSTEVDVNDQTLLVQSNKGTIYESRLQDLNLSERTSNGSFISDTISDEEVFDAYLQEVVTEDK
T1 sequence (Q59961 1-647): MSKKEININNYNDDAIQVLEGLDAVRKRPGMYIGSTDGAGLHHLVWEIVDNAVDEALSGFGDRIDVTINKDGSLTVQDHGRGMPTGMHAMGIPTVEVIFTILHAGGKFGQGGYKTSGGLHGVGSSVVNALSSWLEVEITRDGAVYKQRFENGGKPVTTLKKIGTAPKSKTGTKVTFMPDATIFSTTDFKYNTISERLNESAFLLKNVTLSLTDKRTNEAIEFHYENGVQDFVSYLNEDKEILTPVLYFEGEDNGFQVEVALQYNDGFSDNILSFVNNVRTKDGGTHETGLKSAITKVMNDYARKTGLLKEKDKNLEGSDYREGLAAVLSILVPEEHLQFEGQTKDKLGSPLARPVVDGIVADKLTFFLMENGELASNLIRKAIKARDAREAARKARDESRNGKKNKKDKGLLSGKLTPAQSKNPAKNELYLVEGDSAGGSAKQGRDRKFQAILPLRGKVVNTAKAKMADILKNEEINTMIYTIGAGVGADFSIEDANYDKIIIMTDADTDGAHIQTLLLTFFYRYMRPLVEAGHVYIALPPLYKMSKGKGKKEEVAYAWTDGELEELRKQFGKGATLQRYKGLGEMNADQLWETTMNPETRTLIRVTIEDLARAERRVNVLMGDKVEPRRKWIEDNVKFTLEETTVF

[3] = molecular target: E. coli DNA gyrase (Escherichia coli, UniProt P0AES4+P0AES6); experiment: Cleavable complex stimulation (CC25), DNA gyrase; format: biochemical; settings: E. coli enzymes; concentration that produces 25% linearization of the DNA
[4] = test system: E. coli topoisomerase mutants; experiment: MIC against defined topoisomerase mutants; format: cell-based; settings: Escherichia coli
Procedure: Furthermore, an experiment was conducted to assess the mechanism of action of besifloxacin in S. pneumoniae, S. aureus, and E. coli via step selections for isolates with decreased susceptibility to besifloxacin, as well as by testing for altered susceptibilities of ciprofloxacin-resistant variants of all three species containing genetically defined mutations in the quinolone resistance determining regions (QRDRs) of structural genes encoding DNA gyrase and topoisomerase IV (Table 2).

[5] = Predicted PK/PD ratios in tears with simulated TID dosing (Table 10); set-up: species or system human; settings: for Cmax/MIC90, Free / AUC24/MIC90, Free: tears, free besifloxacin (40% bound); for AUC24/MIC90, Free: predicted TID
[6] = Systemic exposure after topical ocular administration to humans; settings: human, in vivo, topical or ocular; following topical administration to humans
From the text: Topical ophthalmic use of besifloxacin is not expected to elicit any systemic effects.

[7] = Safety pharmacology: in vivo cardiovascular effects after systemic dosing
From the text: The in vivo cardiovascular effects, specifically, an increase in QT duration, following besifloxacin systemic dosing were only observed after doses that were at least 300 times the intended ocular daily dose. There was no change in heart rate, blood pressure, or cardiac conduction.

[8] = test system: bacterial conjunctivitis; experiment: Study 373: besifloxacin ophthalmic suspension vs vehicle, TID 5 days; settings: N = 60; for Clinical Resolution (2 indices), Resolution / Clinical Resolution (3 indices), No / Clinical Resolution (3 indices), Yes / Microbial Eradication, No / Microbial Eradication, Yes: ITT culture confirmed; for Clinical Resolution (2 indices), Non-resolution: missing or discontinued imputed as non-resolution
[9] = Staphylococcus aureus (MRSA-CR)
[10] = Staphylococcus aureus (MSSA-CR)
[11] = Staphylococcus aureus (all phenotypes)
[12] = Visit 3 (Day 8 or 9), primary endpoint

N[C@@H]1CCCCN(c2c(F)cc3c(=O)c(C(=O)O)cn(C4CC4)c3c2Cl)C1 [Besifloxacin, (R)-(+)-(3-amino-2,3,4,5,6,7-hexahydro-1H-azepin-1-yl)-8-chloro-1-cyclopropyl-6-fluoro-1,4,-dihydro-4-oxo-3-quinolinecarboxylic acid]
potency relative to ciprofloxacin and moxifloxacin (catalytic inhibition and cleavable complex stimulation) ([1]; S. pneumoniae DNA gyrase): 4- to 16 fold
pIC50 ([1]; S. pneumoniae enzymes): 5.60
difference between inhibitory concentrations for DNA gyrase and topoisomerase IV ([1]; S. pneumoniae enzymes): 2.5 fold
pIC50 ([2]; IC50 Topo IV, S. pneumoniae enzymes): 6.00 and 5.99
potency relative to ciprofloxacin and moxifloxacin (catalytic inhibition and cleavable complex stimulation) ([2]; S. pneumoniae topoisomerase IV): 2.5- to 5.0 fold
CC25 Gyrase [3]: 0.1 μM and 0.04 μg/mL
MIC ([4]; E. coli Wild type): 0.12 µg/mL (≈ 0.305 µM)
MIC ([4]; E. coli gyrA D87Y (or S83L)): 0.5 µg/mL (≈ 1.27 µM)
MIC ([4]; E. coli gyrA S83L + parC S80R): 16 µg/mL
MIC ([4]; E. coli gyrA S83L + parE H445L): 1 µg/mL
MIC ([4]; E. coli gyrB D426N): 0.5 µg/mL (≈ 1.27 µM)
AUC24/MIC90, Total [5]: 950
Cmax/MIC90, Free ([5]; Haemophilus influenzae): 6100
AUC24/MIC90, Free ([5]; Haemophilus influenzae): 38,010
Cmax/MIC90, Free [5, 9]: 92
AUC24/MIC90, Free [5, 9]: 570
Cmax/MIC90, Free [5, 10]: 183
AUC24/MIC90, Free [5, 10]: 1140
Cmax/MIC90, Free [5, 11]: 732
AUC24/MIC90, Free [5, 11]: 4561
Cmax/MIC90, Free ([5]; Staphylococcus epidermidis): 732
AUC24/MIC90, Free ([5]; Staphylococcus epidermidis): 4561
Cmax/MIC90, Free ([5]; Streptococcus pneumoniae): 2928
AUC24/MIC90, Free ([5]; Streptococcus pneumoniae): 18,245
Cmax/MIC90, Total ([5]; human): 153
Cmax [6]: ~0.4 ng/mL
dose at which an increase in QT duration was observed [7]: at least 300 times the intended ocular daily dose
heart rate, blood pressure, or cardiac conduction [7]: no change
Clinical Resolution (2 indices), Resolution ([8]; Visit 2 (Day 4 ± 1)): 20 (33.3) n (%)
Clinical Resolution (3 indices), No ([8]; Visit 2 (Day 4 ± 1)): 46 (76.7) n (%)
Clinical Resolution (3 indices), Yes ([8]; Visit 2 (Day 4 ± 1)): 14 (23.3) n (%)
Microbial Eradication, No ([8]; Visit 2 (Day 4 ± 1)): 6 (10.0) n (%)
Microbial Eradication, Yes ([8]; Visit 2 (Day 4 ± 1)): 54 (90.0) n (%)
Clinical Resolution (2 indices), Non-resolution ([8]; Visit 2 (Day 4 ± 1)): 40 (66.7) n (%)
Clinical Resolution (2 indices), Resolution ([8]; Visit 3 (Day 8 or 9)): 44 (73.3) n (%)
Clinical Resolution (3 indices), No ([8]; Visit 3 (Day 8 or 9)): 23 (38.3) n (%)
Microbial Eradication, No ([8]; Visit 3 (Day 8 or 9)): 6 (10.0) n (%)
Clinical Resolution (2 indices), Non-resolution ([8]; Visit 3 (Day 8 or 9)): 16 (26.7) n (%)
Clinical Resolution (3 indices), Yes [8, 12]: 37 (61.7) n (%)
Microbial Eradication, Yes [8, 12]: 54 (90.0) n (%)
